Assay results published in patent publication US10736316B2, “Silica particles functionalized and loaded with fungicidal agents, their manufacture and their use as systems of targeted and controlled release of fungicides” (priority 2015, dated 2020).
Each block holds one compound with its values, some of them ahead of it.

Legend:
[1] = tested on: Penicillium digitatum; experiment: Rotting control (RRI) in oranges of Valencia variety inoculated with P. digitatum; type: in vivo; settings: 7 days at 22° C. and 85% RH
Experimental: Without previous washing or treatment, fruits from the same batch, receive from field, were randomized in groups of 25. Each treatment was performed with 4 replicates of 25 fruits, which were artificially inoculated on one side by pricking with a punch (2 mm length, 1 mm diameter) previously impregnated in a solution of Penicillium digitatum or Penicillium italicum spores of 5*10^5 cfu/ml and allowed to stand for 17 hours before treatment.
(§1) For the LD treatments, IMZ LD C18 and IMZ LD C12, suspensions of (IMZ)SG-C18-OH and (IMZ)SG-C12-OH at 6 g/l in tap water buffered with 10 mM of sodium etidronate at pH=7.5 was prepared from the concentrated suspensions described in examples 7 and 8. […] As a control, a treatment of bathing in tap water was carried out (CONTROL).
The 25 fruits of each replicate were bathed using a mesh by immersion for 30 seconds in 10 l of treatment. […] After this time, the number of rotten fruits were counted for each replicate. The effectiveness of the treatments is expressed as % rotting and also as rotting reduction index (RRI, %), which is calculated as: 100×(No. of rotten control fruits−No. of rotten products in the treatment)/No. of rotten fruits in the control.
This experiment was carried out following the same procedure as for examples 9-14. The free pyrimethanil residues in water and virtual were analyzed according to examples 18 and 19. […]

[2] = Analysis of free pyrimethanil in treatment water by HPLC; type: physicochemical; settings: example 17
Experimental: (§2) The reduction of free fungicide in water is calculated as: 100×(concentration of free fungicide in reference treatment water−concentration of free fungicide in LD treatment water)/concentration of free fungicide in reference treatment water. Likewise, the reduction of fungicide residues in fruits is calculated as: 100×(fungicide residues in fruit in reference treatment−fungicide residues in fruit in LD treatment)/fungicide residues in fruit in reference treatment.
This experiment was carried out following the same procedure as for examples 9-14. The free pyrimethanil residues in water and virtual were analyzed according to examples 18 and 19. For the reference conventional treatment (PIRREF) a solution of pyrimethanil at 525 mg/l in tap water was prepared from a commercial solution at 40% (PENBOTEC). For the LD treatment (PIR LD C18) a suspension of (PIR)SG-C18-OH of 14 g/l in tap water buffered with sodium etidronate 10 mM at pH=7.5 was prepared from the concentrated suspension described in example 16. A 14 g/l suspension correspond to a virtual pyrimethanil concentration contained within the microparticles of 525 mg/l. As a control, a treatment of bathing in tap water was carried out (CONTROL).
(§3) 1 ml of test solution of loaded microparticles was filtered through a nylon 0.45 micron syringe filter and later analyzed by HPLC (Agilent 1100 Series).
(§4) Chromatographic Conditions: […]

[3] = Analysis of free imazalil in treatment water by HPLC; type: physicochemical; settings: for [IMZ] free in water: treatment water at the moment of treatment; for Reduction of [IMZ] in water: versus reference treatment water
Experimental: as §3
Chromatographic Conditions:
60% Phosphate buffer pH=2.5, 2 mM
as §1, §2

[4] = Analysis of free thiabenzadol in treatment water by HPLC; type: physicochemical; settings: example 22
Experimental: as §2
This experiment was carried out following the same procedure as for examples 9-14. The free thiabenzadol residues in water and virtual were analyzed according to examples 23 and 24. For the reference conventional treatment (TBZ REF) a solution of thiabenzadol at 1200 mg/l in tap water was prepared from a commercial solution at 40% (TEXTAR). For the LD treatment (TBZ LD C18) a suspension of (TBZ)SG-C18-OH of 16 g/l in tap water buffered with sodium etidronate 10 mM at pH=7.5 was prepared from the concentrated suspension described in example 21. A 16 g/l suspension correspond to a virtual thiabenzadol concentration contained within the microparticles of 1200 mg/l. As a control, a treatment of bathing in tap water was carried out (CONTROL).
as §3, §4

[5] = treatment water at the moment of treatment
[6] = versus reference treatment water

Compound: Cc1cc(C)nc(Nc2ccccc2)n1 [PIR REF, pyrimethanil]
rotting reduction index (RRI) ([1]; example 17, FIG. 16, 14 g/l (PIR)SG-C18-OH in etidronic buffer pH=7.5 or pyrimethanil 525 mg/l): ~90% | [PIR] free in water [2, 5]: 525 mg/L | Reduction of [PIR] in water [2, 6]: 0.0%

Compound: imazalil sulfate [IMZ REF]
[IMZ] free in water ([3]; example 9): 450 mg/L | Reduction of [IMZ] in water ([3]; example 9): 0.0% | [IMZ] free in water ([3]; example 10): 450 mg/L | Reduction of [IMZ] in water ([3]; example 10): 0.0% | [IMZ] free in water ([3]; example 11): 450 mg/L | Reduction of [IMZ] in water ([3]; example 11): 0.0% | [IMZ] free in water ([3]; example 12): 450 mg/L | Reduction of [IMZ] in water ([3]; example 12): 0.0% | [IMZ] free in water ([3]; example 13): 450 mg/L | Reduction of [IMZ] in water ([3]; example 13): 0.0% | [IMZ] free in water ([3]; example 14): 450 mg/L | Reduction of [IMZ] in water ([3]; example 14): 0.0%

[TBZ] free in water [4, 5]: 1200 mg/L | Reduction of [TBZ] in water [4, 6]: 0.0%
Compound: c1ccc2[nH]c(-c3cscn3)nc2c1 [TBZ REF, thiabenzadol]
rotting reduction index (RRI) ([1]; example 22, FIG. 18, 16 g/l (TBZ)SG-C18-OH in etidronic buffer pH=7.5 or thiabenzadol 1200 mg/l): 100%
